Results taken from US7601716B2, “Pyridopyrazines and derivatives thereof as ALK and c-Met inhibitors” (Cephalon, Inc., priority 2006, dated 2009).

Assays:
[1] = target: T1, c-Met (cytoplasmic domain) (Homo sapiens, UniProt P08581); test: c-Met Kinase Assay (ELISA/TRF, PLC-γ substrate); type: biochemical; conditions: 3 μM ATP (Km level); read-out: c-Met Kinase Inhibition (IC50)
T1 construct: Reactions were initiated with 30 ng/mL c-Met (cytoplasmic domain, Invitrogen Corporation #PV3143); purchased Invitrogen Corporation PV3143
Summary of the method: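 c-Met cytoplasmic domain (30 ng/mL) phosphorylates plate-coated GST–PLC-γ for 15 min at 37 °C. Phosphotyrosine detected with Eu-labeled PT66 antibody by time-resolved fluorescence. IC50 from variable-slope sigmoidal fit of % inhibition vs log concentration.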

[2] = target: baculovirus-expressed ALK (Homo sapiens, UniProt Q9UM73); test: ALK Kinase Assay (ELISA/TRF, PLC-γ substrate); type: biochemical; conditions: read-out: ALK Kinase Inhibition (IC50); further: 1 µM ATP (Km level)
Summary of the method: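 Plates coated with GST–PLC-γ fusion substrate (10 μg/mL in TBS); reaction started with 30 ng/ml ALK, run 15 minutes at 37° C. Phosphotyrosine detected by Eu-N1 PT66 antibody (1 hour, 37° C) and time-resolved fluorescence after enhancement. IC50 from sigmoidal variable-slope fit of percent inhibition versus log concentration.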

baculovirus-expressed ALK, sequence (Q9UM73 19-1620): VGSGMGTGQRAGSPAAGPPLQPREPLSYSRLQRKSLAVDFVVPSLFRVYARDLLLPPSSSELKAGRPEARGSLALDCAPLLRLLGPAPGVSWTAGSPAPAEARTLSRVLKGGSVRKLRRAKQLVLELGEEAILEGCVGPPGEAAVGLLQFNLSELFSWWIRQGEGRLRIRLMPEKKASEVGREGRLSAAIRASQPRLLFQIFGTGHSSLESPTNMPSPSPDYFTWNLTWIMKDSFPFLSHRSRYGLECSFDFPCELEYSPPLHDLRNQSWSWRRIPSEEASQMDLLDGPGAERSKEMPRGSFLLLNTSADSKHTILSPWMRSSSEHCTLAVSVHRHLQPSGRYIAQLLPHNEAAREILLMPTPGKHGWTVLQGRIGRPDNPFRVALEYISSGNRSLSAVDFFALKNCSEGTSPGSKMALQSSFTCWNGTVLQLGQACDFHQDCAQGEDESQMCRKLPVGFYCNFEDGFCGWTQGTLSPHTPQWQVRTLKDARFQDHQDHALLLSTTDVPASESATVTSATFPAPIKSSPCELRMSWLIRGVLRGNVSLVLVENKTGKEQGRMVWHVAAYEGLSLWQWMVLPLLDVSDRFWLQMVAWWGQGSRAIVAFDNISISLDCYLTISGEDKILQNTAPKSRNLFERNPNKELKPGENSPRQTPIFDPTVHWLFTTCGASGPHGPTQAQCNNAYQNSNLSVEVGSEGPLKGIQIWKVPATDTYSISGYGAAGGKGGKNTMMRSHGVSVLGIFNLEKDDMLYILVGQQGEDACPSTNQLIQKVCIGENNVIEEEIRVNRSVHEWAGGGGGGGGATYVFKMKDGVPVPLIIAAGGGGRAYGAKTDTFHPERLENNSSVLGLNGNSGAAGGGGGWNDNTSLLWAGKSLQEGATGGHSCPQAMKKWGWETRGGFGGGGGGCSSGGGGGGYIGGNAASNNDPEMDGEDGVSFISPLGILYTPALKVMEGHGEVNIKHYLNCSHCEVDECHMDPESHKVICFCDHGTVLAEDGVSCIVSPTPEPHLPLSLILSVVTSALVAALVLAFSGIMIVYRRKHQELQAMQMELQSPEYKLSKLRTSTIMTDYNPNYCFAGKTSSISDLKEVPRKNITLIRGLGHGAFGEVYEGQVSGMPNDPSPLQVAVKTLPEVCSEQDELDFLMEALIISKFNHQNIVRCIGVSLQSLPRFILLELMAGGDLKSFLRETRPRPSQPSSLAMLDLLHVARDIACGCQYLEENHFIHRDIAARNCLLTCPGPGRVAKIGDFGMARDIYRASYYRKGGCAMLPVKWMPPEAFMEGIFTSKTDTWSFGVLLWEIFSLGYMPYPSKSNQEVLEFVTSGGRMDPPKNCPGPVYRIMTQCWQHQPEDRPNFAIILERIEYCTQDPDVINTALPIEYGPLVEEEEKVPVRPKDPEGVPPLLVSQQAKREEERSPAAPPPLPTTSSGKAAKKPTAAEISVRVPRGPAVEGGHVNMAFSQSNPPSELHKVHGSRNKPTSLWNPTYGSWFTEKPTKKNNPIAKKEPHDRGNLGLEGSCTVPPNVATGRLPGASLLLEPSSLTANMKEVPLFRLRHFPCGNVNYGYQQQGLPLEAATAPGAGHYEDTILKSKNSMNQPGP
T1 sequence (P08581 956-1390 limits assumed): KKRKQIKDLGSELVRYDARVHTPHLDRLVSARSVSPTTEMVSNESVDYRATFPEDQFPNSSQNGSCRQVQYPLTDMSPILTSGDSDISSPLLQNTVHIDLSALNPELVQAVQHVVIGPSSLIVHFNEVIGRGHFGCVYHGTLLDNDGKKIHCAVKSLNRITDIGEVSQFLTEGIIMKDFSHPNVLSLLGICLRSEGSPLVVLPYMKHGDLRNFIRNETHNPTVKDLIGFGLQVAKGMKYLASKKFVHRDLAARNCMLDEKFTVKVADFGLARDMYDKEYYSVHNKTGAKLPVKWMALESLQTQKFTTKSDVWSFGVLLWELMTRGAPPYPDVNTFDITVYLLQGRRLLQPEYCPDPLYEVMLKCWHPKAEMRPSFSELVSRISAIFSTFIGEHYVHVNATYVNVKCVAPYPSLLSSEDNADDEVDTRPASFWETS

| SMILES | IC50 [1] [µM] | IC50 [2] [µM] | melting point |
| --- | --- | --- | --- |
| CC1(C)CN(Cc2cc(F)ccc2F)c2cc(-c3ccc(C(=O)N4CCC[C@H]4CN4CCCC4)cc3)cnc2N1 [Example 96, {4-[1-(2,5-Difluorobenzyl)-3,3-dimethyl-1,2,3,4-tetrahydropyrido[2,3-b]pyrazin-7-yl]phenyl}-((S)-2-((pyrrolidin-1-yl)methyl)pyrrolidin-1-yl)methanone] | 10 to 100 | 1 to 10 | 74 to 77 °C |
| CN1CCN(C(=O)c2ccc(-c3cnc4c(c3)N(Cc3cc(F)ccc3F)CC(C)(C)N4)cc2)CC1 [Example 97, {4-[1-(2,5-Difluorobenzyl)-3,3-dimethyl-1,2,3,4-tetrahydropyrido[2,3-b]pyrazin-7-yl]phenyl}-(4-methylpiperazin-1-yl)methanone] | > 100 | 10 to 100 | 191 to 192 °C |
| Fc1ccc(F)c(CN2CCNc3ncc(I)cc32)c1Cl [Example 98, 1-(2-Chloro-3,6-difluorobenzyl)-7-iodo-1,2,3,4-tetrahydropyrido[2,3-b]pyrazine] | > 100 | 1 to 10 | 156 to 157 °C |
| Cc1noc(C)c1-c1cnc2c(c1)N(Cc1c(F)ccc(F)c1Cl)CCN2 [Example 103, 1-(2-Chloro-3,6-difluorobenzyl)-7-(3,5-dimethyl-isoxazol-4-yl)-1,2,3,4-tetrahydropyrido[2,3-b]pyrazine] | 10 to 100 | 0.1 to 1 | 215 to 216 °C |
| Fc1ccc(F)c(CN2CCNc3ncc(-c4cnc(N5CCOCC5)nc4)cc32)c1Cl [Example 107, 1-(2-Chloro-3,6-difluorobenzyl)-7-(2-morpholin-4-yl-pyrimidin-5-yl)-1,2,3,4-tetrahydropyrido[2,3-b]pyrazine] | 10 to 100 | < 0.1 | 250 to 251 °C |
| Fc1ccc(F)c(CN2CCNc3ncc(-c4ccc(N5CCOCC5)cc4)cc32)c1Cl [Example 108, 1-(2-Chloro-3,6-difluorobenzyl)-7-(4-morpholin-4-yl-phenyl)-1,2,3,4-tetrahydropyrido[2,3-b]pyrazine] | 10 to 100 | < 0.1 | 217 to 219 °C |
| CN1CCN(c2ccc(-c3cnc4c(c3)NCCN4)cn2)CC1 [Example 109, 7-[6-(4-Methylpiperazin-1-yl)pyridin-3-yl]-1,2,3,4-tetrahydropyrido[2,3-b]pyrazine] | > 100 | 10 to 100 | 225 °C (dec.) |
| O=C(Cc1cc(F)ccc1F)N1CCNc2ncc(I)cc21 [Example 112, 2-(2,5-Difluorophenyl)-1-(7-iodo-3,4-dihydro-2H-pyrido[2,3-b]pyrazin-1-yl)ethanone] | 10 to 100 | 10 to 100 | 152 to 153 °C |
| CN1CCN(c2ccc(-c3cnc4c(c3)N(C(=O)Cc3cc(F)ccc3F)CCN4)cn2)CC1 [Example 113] | 10 to 100 | 1 to 10 | > 300 °C |
| FC(F)(F)c1ccc(Cl)cc1CN1CCNc2ncc(I)cc21 [Example 115, 1-(5-Chloro-2-trifluoromethylbenzyl)-7-iodo-1,2,3,4-tetrahydropyrido[2,3-b]pyrazine] | > 100 | 1 to 10 | 189 to 191 °C |
| O=C1CNc2ncc(I)cc2N1Cc1cc(C(F)(F)F)ccc1Cl [Example 116, 1-(2-Chloro-5-trifluoromethylbenzyl)-7-iodo-3,4-dihydro-1H-pyrido[2,3-b]pyrazin-2-one] | > 100 | 10 to 100 | 252 to 253 °C |
| FC(F)(F)c1ccc(Cl)c(CN2CCNc3ncc(I)cc32)c1 [Example 119, 1-(2-Chloro-5-trifluoromethylbenzyl)-7-iodo-1,2,3,4-tetrahydropyrido[2,3-b]pyrazine] | > 100 | > 100 | 120 to 125 °C |
| O=S(=O)(c1cc(F)ccc1F)N1CCNc2ncc(I)cc21 [Example 121, 1-(2,5-Difluorobenzenesulfonyl)-7-iodo-1,2,3,4-tetrahydropyrido[2,3-b]pyrazine] | 10 to 100 | 1 to 10 | 187 to 188 °C |
| O=S(=O)(c1ccccc1Cl)N1CCNc2ncc(I)cc21 [Example 124, 1-(2-Chlorobenzenesulfonyl)-7-iodo-1,2,3,4-tetrahydropyrido[2,3-b]pyrazine] | 10 to 100 | 1 to 10 | 146 to 147 °C |
| CN1CCN(c2ccc(-c3cnc4c(c3)N(S(=O)(=O)c3ccccc3Cl)CCN4)cn2)CC1 [Example 126, 1-(2-Chlorobenzenesulfonyl)-7-[6-(4-methylpiperazin-1-yl)pyridin-3-yl]-1,2,3,4 tetrahydropyrido[2,3-b]pyrazine] | 1 to 10 | 0.1 to 1 | 164 to 165 °C |
| N#Cc1cnc2c(c1)N(Cc1cc(Cl)ccc1Cl)CCN2 [Example 127, 1-(2,5-Dichlorobenzyl)-1,2,3,4-tetrahydropyrido[2,3-b]pyrazine-7-carbonitrile] | > 100 | 1 to 10 | 221 to 222 °C |
| O=C(O)c1cnc2c(c1)N(Cc1cc(Cl)ccc1Cl)CCN2 [Example 128, 1-(2,5-Dichlorobenzyl)-1,2,3,4-tetrahydropyrido[2,3-b]pyrazine-7-carboxylic acid] | 10 to 100 | > 100 | 273 °C (dec.) |
| CC(C)(C)OC(=O)N1CC=C(c2cnc3c(c2)N(Cc2cc(Cl)ccc2Cl)CCN3)CC1 [Example 130, 4-[1-(2,5-Dichlorobenzyl)-1,2,3,4-tetrahydropyrido[2,3-b]pyrazin-7-yl]-3,6-dihydro-2H-pyridine-1-carboxylic acid tert-butyl ester] | 10 to 100 | 1 to 10 | 92 to 95 °C |
| Clc1ccc(Cl)c(CN2CCNc3ncc(C4=CCNCC4)cc32)c1 [Example 131, 1-(2,5-Dichlorobenzyl)-7-(1,2,3,6-tetrahydropyridin-4-yl)-1,2,3,4-tetrahydropyrido[2,3-b]pyrazine] | 1 to 10 | 1 to 10 | 133 to 136 °C |
| O=C1CNc2ncc(I)cc2N1Cc1cc(F)ccc1C(F)(F)F [Example 133, 1-(5-Fluoro-2-trifluoromethylbenzyl)-7-iodo-3,4-dihydro-1H-pyrido[2,3-b]pyrazin-2-one] | > 100 | > 100 | 244 to 245 °C |
| OC1CNc2ncc(I)cc2N1Cc1cc(F)ccc1C(F)(F)F (stereo not drawn) [Example 134, 1-(5-Fluoro-2-trifluoromethylbenzyl)-7-iodo-1,2,3,4-tetrahydropyrido[2,3-b]pyrazin-2-ol] | 10 to 100 | 10 to 100 | 142 °C (dec.) |
| CCOC(=O)c1ccc(-c2cnc3c(c2)NC(=O)CN3)cc1 [Example 135, 4-(2-Oxo-1,2,3,4-tetrahydropyrido[2,3-b]pyrazin-7-yl)benzoic acid ethyl ester] | > 100 | > 100 | > 200 °C |
| O=C1CNc2ncc(I)cc2N1Cc1c(Cl)cccc1Cl [Example 136, 1-(2,6-Dichlorobenzyl)-7-iodo-3,4-dihydro-1H-pyrido[2,3-b]pyrazin-2-one] | > 100 | > 100 | > 200 °C |
| O=C1CNc2ncc(-c3cccnc3)cc2N1Cc1c(Cl)cccc1Cl [Example 137, 1-(2,6-Dichlorobenzyl)-7-pyridin-3-yl-3,4-dihydro-1H-pyrido[2,3-b]pyrazin-2-one] | > 100 | 10 to 100 | > 200 °C |
| CCOC(=O)c1ccc(-c2cnc3c(c2)N(Cc2c(Cl)cccc2Cl)C(=O)CN3)cc1 [Example 139, 4-[1-(2,6-Dichlorobenzyl)-2-oxo-1,2,3,4-tetrahydropyrido[2,3-b]pyrazin-7-yl]benzoic acid ethyl ester] | 10 to 100 | 10 to 100 | 226 °C |
| O=C(O)c1ccc(-c2cnc3c(c2)N(Cc2c(Cl)cccc2Cl)C(=O)CN3)cc1 [Example 140, 4-[1-(2,6-Dichlorobenzyl)-2-oxo-1,2,3,4-tetrahydropyrido[2,3-b]pyrazin-7-yl]benzoic acid] | 1 to 10 | 1 to 10 | > 200 °C |
| O=C(NCCN1CCCC1)c1ccc(-c2cnc3c(c2)N(Cc2c(Cl)cccc2Cl)C(=O)CN3)cc1 [Example 142, 4-[1-(2,6-Dichlorobenzyl)-2-oxo-1,2,3,4-tetrahydropyrido[2,3-b]pyrazin-7-yl]-N-(2-pyrrolidin-1-yl-ethyl)benzamide] | 1 to 10 | 0.1 to 1 | > 200 °C |
| O=C1CNc2ncc(I)cc2N1Cc1cc(Cl)ccc1Cl [Example 155, 1-(2,5-Dichlorobenzyl)-7-iodo-3,4-dihydro-1H-pyrido[2,3-b]pyrazin-2-one] | > 100 | 10 to 100 | > 200 °C |
| Clc1ccc(Cl)c(CN2CCNc3ncc(I)cc32)c1 [Example 158, 1-(2,5-Dichlorobenzyl)-7-iodo-1,2,3,4-tetrahydropyrido[2,3-b]pyrazine] | > 100 | 1 to 10 | 169 °C |
| O=C(c1ccc(-c2cnc3c(c2)N(Cc2c(Cl)cccc2Cl)C(=O)CN3)cc1)N1CCC(N2CCCC2)CC1 [Example 161, 1-(2,6-Dichlorobenzyl)-7-[4-(4-(pyrrolidin-1-yl)piperidine-1-carbonyl)phenyl]-3,4-dihydro-1H-pyrido[2,3-b]pyrazin-2-one] | 0.1 to 1 | 0.1 to 1 | 199 °C |
